Measured values as given in publication PMC6428421 (Nature cell biology, 2019).

Biological target: IRAK1 (Homo sapiens, UniProt P51617)
Assay: KINOMEScan competition kinase-binding assay

Sequence of IRAK1 (P51617 whole entry): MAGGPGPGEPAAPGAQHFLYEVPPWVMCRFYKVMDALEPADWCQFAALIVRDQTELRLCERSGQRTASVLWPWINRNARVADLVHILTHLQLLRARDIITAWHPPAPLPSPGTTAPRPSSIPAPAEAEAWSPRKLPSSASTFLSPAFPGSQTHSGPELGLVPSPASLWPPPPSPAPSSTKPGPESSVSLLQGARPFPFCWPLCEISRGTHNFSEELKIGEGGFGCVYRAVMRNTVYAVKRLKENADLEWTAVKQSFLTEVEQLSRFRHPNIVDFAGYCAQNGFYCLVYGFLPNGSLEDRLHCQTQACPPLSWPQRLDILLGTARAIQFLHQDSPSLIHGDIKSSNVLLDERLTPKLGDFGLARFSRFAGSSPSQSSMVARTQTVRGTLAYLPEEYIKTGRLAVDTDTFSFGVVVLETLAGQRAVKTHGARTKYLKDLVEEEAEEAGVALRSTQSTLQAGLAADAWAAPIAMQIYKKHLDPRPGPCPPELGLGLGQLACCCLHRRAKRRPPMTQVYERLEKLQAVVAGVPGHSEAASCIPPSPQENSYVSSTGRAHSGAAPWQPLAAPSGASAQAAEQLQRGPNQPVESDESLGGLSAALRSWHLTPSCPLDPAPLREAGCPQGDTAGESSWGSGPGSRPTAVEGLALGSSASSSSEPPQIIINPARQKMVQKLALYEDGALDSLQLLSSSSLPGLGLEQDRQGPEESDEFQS

For `COC(=O)Nc1nc2ccc([S+]([O-])c3ccccc3)cc2[nH]1` (stereo not shown) [OXF, oxfendazole], the Kd was 5.8 µM.
